In US10851093B2, “Tyrosine kinase inhibitors” (Rigel Pharmaceuticals, Inc., priority 2018, dated 2020):

Legend:
[1] = target: T1, Axl (Homo sapiens, UniProt P30530); experiment: Phospho-AKT HTRF, HUVEC, Axl ABX-L, 8 pt; type: cell-based; conditions: HUVEC cells, pAkt(Ser473) HTRF, Axl ABX-L stimulation
T1 construct: Seed HUVECs (10K cells/well) in EBM-2 complete media; host or cells: HUVEC
T1 sequence (P30530 26-894): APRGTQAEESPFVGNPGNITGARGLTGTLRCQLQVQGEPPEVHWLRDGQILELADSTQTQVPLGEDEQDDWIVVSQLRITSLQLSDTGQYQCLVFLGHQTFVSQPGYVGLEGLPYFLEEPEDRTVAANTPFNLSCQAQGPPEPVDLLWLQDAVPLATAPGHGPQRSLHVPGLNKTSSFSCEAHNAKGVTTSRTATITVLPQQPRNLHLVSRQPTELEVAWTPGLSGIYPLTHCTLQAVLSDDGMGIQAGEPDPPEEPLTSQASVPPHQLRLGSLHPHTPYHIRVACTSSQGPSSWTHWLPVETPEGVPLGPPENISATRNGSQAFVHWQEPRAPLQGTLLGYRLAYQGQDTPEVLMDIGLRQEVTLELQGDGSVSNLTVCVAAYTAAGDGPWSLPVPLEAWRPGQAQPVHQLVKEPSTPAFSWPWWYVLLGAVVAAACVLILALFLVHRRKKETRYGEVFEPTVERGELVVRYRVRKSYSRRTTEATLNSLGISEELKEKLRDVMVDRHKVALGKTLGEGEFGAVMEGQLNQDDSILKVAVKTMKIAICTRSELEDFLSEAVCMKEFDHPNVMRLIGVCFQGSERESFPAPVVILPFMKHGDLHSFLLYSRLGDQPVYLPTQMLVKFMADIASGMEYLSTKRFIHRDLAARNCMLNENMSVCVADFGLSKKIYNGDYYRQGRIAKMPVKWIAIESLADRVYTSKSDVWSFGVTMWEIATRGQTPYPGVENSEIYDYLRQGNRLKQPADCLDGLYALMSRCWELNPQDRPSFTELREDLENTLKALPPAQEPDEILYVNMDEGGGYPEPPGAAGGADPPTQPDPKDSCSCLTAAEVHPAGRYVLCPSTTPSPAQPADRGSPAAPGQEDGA
Experimental: [The source words this procedure for another target and reports this target under the same test.] (§1) Example 13: PAKT HTRF-HUVEC Assay
(§2) Seed HUVECs (10K cells/well) in EBM-2 complete media (EBM-2 basal medium plus EGM-2 BulletKit supplements) overnight at 37° C., 5% CO2 in Costar 96-well white clear-bottom plates. Remove culture media and starve cells for 3-4 hours in 50 μL/well EBM-2 basal medium. Perform serial dilution of compounds in DMSO from 2.5 mM in 4-fold dilutions, and then dilute 1:125 in EBM-2 basal media. Mix 50 μL/well 2× compounds with 50 μL/well HUVECs in duplicate in Costar 96-well white clear-bottom plates. Incubate plates for 1 hour at 37° C., 5% CO2. Cross-link anti-human MerTK antibody to Biotin-SP-conjugated anti-mouse IgG antibody (1:1) to give final concentrations of 5 μg/mL of anti-human MerTK-XL. Stimulate HUVECs with 25 μL/well 5× anti-human MerTK-XL to give final concentrations of 1 ug/mL for 10 minutes at 37° C., 5% CO2. Completely remove media and lyse HUVECs with 40 uL:WELL per well of Cisbio HTRF 1× lysis buffer. Performed pAkt(Ser473) HTRF assay in ProxiPlate-384 Plus, white 384-shallow well microplate according to the vendor protocol and read plates with a SpectralMax Paradigm plate reader. Enter the HTRF values into Athena (Rigel) for curve fitting, EC50 calculation, and database storage.

[2] = target: T2, MerTK (Homo sapiens, UniProt Q12866); experiment: Phospho-AKT HTRF, HUVEC, Mer-XL, 8 pt (pAKT HTRF-HUVEC assay, anti-human MerTK-XL stimulation); type: cell-based; conditions: HUVEC cells, pAkt(Ser473) HTRF, anti-human MerTK-XL stimulation 1 ug/mL 10 minutes
T2 construct: Seed HUVECs (10K cells/well) in EBM-2 complete media; host or cells: HUVEC
T2 sequence (Q12866 21-999): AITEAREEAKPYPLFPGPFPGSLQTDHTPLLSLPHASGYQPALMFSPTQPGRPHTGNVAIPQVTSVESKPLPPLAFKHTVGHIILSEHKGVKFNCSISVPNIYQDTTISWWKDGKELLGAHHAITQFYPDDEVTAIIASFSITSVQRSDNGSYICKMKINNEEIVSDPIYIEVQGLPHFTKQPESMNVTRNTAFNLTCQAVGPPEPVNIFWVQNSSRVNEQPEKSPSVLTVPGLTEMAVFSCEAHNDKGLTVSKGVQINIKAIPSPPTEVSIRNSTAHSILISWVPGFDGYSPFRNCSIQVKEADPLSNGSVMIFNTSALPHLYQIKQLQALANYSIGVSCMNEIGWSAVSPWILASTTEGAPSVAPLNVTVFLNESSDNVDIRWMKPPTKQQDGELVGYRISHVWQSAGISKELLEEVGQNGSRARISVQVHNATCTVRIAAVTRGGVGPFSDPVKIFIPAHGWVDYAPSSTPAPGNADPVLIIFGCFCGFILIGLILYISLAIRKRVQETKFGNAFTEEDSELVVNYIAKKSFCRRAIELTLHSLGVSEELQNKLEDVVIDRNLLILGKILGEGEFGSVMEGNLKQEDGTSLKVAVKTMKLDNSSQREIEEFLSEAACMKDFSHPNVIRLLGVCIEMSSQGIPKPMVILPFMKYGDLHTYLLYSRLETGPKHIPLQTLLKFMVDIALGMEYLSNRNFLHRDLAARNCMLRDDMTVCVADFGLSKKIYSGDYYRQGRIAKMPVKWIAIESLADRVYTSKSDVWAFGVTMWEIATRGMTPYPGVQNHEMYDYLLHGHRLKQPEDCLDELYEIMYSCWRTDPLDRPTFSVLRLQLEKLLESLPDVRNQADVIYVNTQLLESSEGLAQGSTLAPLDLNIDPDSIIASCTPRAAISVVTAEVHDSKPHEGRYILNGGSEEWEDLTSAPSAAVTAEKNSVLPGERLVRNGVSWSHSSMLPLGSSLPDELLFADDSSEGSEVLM
Experimental: as §1, §2

EC50 [1] [µM]	EC50 [2] [µM]	Structure (SMILES)
0.147	0.0272	COc1cc2c(Oc3ccc(NC(=O)c4csc(Br)n4)nc3)ccnc2cc1OCCCN1CCOCC1 [Compound 40, 2-bromo-N-(5-((6-methoxy-7-(3-morpholinopropoxy)quinolin-4-yl)oxy)pyridin-2-yl)thiazole-4-carboxamide]
2.12	0.64	COc1cc2c(Oc3ccc(NC(=O)c4csc(N5CCC(O)CC5)n4)nc3)ccnc2cc1OCCCN1CCOCC1 [Compound 41, 2-(4-hydroxypiperidin-1-yl)-N-(5-((6-methoxy-7-(3-morpholinopropoxy)quinolin-4-yl)oxy)pyridin-2-yl)thiazole-4-carboxamide]
0.0387	0.0061	COc1cc2c(Oc3ccc(NC(=O)c4cccc(N5CCC(F)(F)CC5)n4)nc3)ccnc2cc1OCCCN1CCOCC1 [Compound 28, 6-(4,4-difluoropiperidin-1-yl)-N-(5-((6-methoxy-7-(3-morpholinopropoxy)quinolin-4-yl)oxy)pyridin-2-yl)picolinamide]
0.344	0.238	COc1cc2c(Oc3ccc(NC(=O)c4ncc(-c5ccccc5)s4)nc3)ccnc2cc1OCCCN1CCOCC1 [Compound 48, N-(5-((6-methoxy-7-(3-morpholinopropoxy)quinolin-4-yl)oxy)pyridin-2-yl)-5-phenylthiazole-2-carboxamide]
0.0849	0.102	COc1cc2c(Oc3ccc(NC(=O)c4cccc(N5CCC(C)(C)CC5)n4)nc3)ccnc2cc1OCCCN1CCOCC1 [Compound 27, 6-(4,4-dimethylpiperidin-1-yl)-N-(5-((6-methoxy-7-(3-morpholinopropoxy)quinolin-4-yl)oxy)pyridin-2-yl)picolinamide]
0.0131	0.0077	COc1cc2nccc(Oc3ccc(NC(=O)c4nc(-c5ccccc5)c5c(n4)C4CCN5CC4)nc3)c2cc1OC [Compound 38, N-(5-((6,7-dimethoxyquinolin-4-yl)oxy)pyridin-2-yl)-4-phenyl-7,8-dihydro-6H-5,8-ethanopyrido[3,2-d]pyrimidine-2-carboxamide]
0.651	0.69	CCOC1CCN(c2cccc(C(=O)Nc3ccc(Oc4ccnc5cc(OCCCN6CCOCC6)c(OC)cc45)cn3)n2)CC1 [Compound 29, 6-(4-ethoxypiperidin-1-yl)-N-(5-((6-methoxy-7-(3-morpholinopropoxy)quinolin-4-yl)oxy)pyridin-2-yl)picolinamide]
0.188	0.161	COc1ccnc(C(=O)Nc2ccc(Oc3ccnc4cc(OCCCN5CCOCC5)c(OC)cc34)cn2)c1 [Compound 33, 4-Methoxy-N-(5-((6-methoxy-7-(3-morpholinopropoxy)quinolin-4-yl)oxy)pyridin-2-yl)picolinamide]
0.739	0.311	COc1cc2c(Oc3ccc(NC(=O)c4cc(F)ccn4)nc3)ccnc2cc1OCCCN1CCOCC1 [Compound 31, 4-Fluoro-N-(5-((6-methoxy-7-(3-morpholinopropoxy)quinolin-4-yl)oxy)pyridin-2-yl)picolinamide]
0.11	0.0094	COc1cc2c(Oc3ccc(NC(=O)c4cccc(N5CC(F)(F)C5)n4)nc3)ccnc2cc1OCCCN1CCOCC1 [Compound 30, 6-(3,3-difluoroazetidin-1-yl)-N-(5-((6-methoxy-7-(3-morpholinopropoxy)quinolin-4-yl)oxy)pyridin-2-yl)picolinamide]

Second part, the compound before the results:

Structure (SMILES)	EC50 [1] [µM]	EC50 [2] [µM]
COc1cc2c(Oc3ccc(NC(=O)c4nccc(-c5ccccc5)n4)nc3)ccnc2cc1OCCCN1CCOCC1 [Compound 4, N-(5-((6-Methoxy-7-(3-morpholinopropoxy)quinolin-4-yl)oxy)pyridin-2-yl)-4-phenylpyrimidine-2-carboxamide]	0.005	0.0039
COc1cc2c(Oc3ccc(NC(=O)c4cc(N5CCC(C)(C)CC5)ccn4)nc3)ccnc2cc1OCCCN1CCOCC1 [Compound 22, 4-(4,4-dimethylpiperidin-1-yl)-N-(5-((6-methoxy-7-(3-morpholinopropoxy)quinolin-4-yl)oxy)pyridin-2-yl)picolinamide]	0.187	0.096
COc1cc2c(Oc3ccc(NC(=O)c4nc5ccccc5c(=O)[nH]4)nc3)ccnc2cc1OCCCN1CCOCC1 [Compound 12, N-(5-((6-Methoxy-7-(3-morpholinopropoxy)quinolin-4-yl)oxy)pyridin-2-yl)-4-oxo-3,4-dihydroquinazoline-2-carboxamide]	0.0994	0.0721
COc1cc2c(Oc3ccc(NC(=O)c4cc(N5CCOCC5)ccn4)nc3)ccnc2cc1OCCCN1CCOCC1 [Compound 14, N-(5-((6-methoxy-7-(3-morpholinopropoxy)quinolin-4-yl)oxy)pyridin-2-yl)-4-morpholinopicolinamide]	0.805	0.43
COc1cc2c(Oc3ccc(NC(=O)c4nc(-c5ccccc5)c5c(n4)C4CCN5CC4)nc3)ccnc2cc1OCCCN1CCOCC1 [Compound 6, N-(5-((6-methoxy-7-(3-morpholinopropoxy)quinolin-4-yl)oxy)pyridin-2-yl)-4-phenyl-7,8-dihydro-6H-5,8-ethanopyrido[3,2-d]pyrimidine-2-carboxamide, hydrochloric acid]	0.0033	0.0025
COc1cc2c(Oc3ccc(NC(=O)c4cccc(N5CCCCC5)n4)nc3)ccnc2cc1OCCCN1CCOCC1 [Compound 23, N-(5-((6-methoxy-7-(3-morpholinopropoxy)quinolin-4-yl)oxy)pyridin-2-yl)-6-(piperidin-1-yl)picolinamide]	0.0668	0.013
COc1cc2c(Oc3ccc(NC(=O)c4cc(N5CC6(CCOCC6)C5)ccn4)nc3)ccnc2cc1OCCCN1CCOCC1 [Compound 18, N-(5-((6-methoxy-7-(3-morpholinopropoxy)quinolin-4-yl)oxy)pyridin-2-yl)-4-(7-oxa-2-azaspiro[3.5]nonan-2-yl)picolinamide]	0.114	0.098
COc1cc2c(Oc3ccc(NC(=O)c4cc(N5CCCC5)ccn4)nc3)ccnc2cc1OCCCN1CCOCC1 [Compound 16, N-(5-((6-methoxy-7-(3-morpholinopropoxy)quinolin-4-yl)oxy)pyridin-2-yl)-4-(pyrrolidin-1-yl)picolinamide]	0.0432	0.0279
